Measured values taken from US11446263B2, “Caspase inhibitor-containing drug for treating or preventing disorders caused by TGF-β, and applications thereof” (The Doshisha, priority 2015, dated 2022).

How the values were obtained:
[1] = tested on: p-Smad2; experiment: p-Smad2 western blot in iFECD with TGF-β2 (Example 17); format: cell-based, human; details: TGF-β2 10 ng/mL, inhibitor 10 μM, 24 hours
Description: IFECDs were seeded at 1.0×10^5 each on a 12-well plate and cultured at 37° C. (5% CO2) until reaching 60 to 70% confluence. Dulbecco's Modified Eagle Medium (DMEM, nacalai tesque, 08456-36)+10% FBS (Thermo Fisher Scientific, S1820-500)+1% penicillin-streptomycin (nacalai tesque, 26252-94) was used as the medium. SB431542 (Wako Pure Chemical Industries, Ltd./192-16541), Z-VD-FMK (isomer mixture) (Wako Pure Chemical Industries, Ltd./262-02061), and emricasan (CHEMSCENE, LLC/CS-0599) were then added at a concentration of 10 μM, and the cells were incubated for 24 hours. The medium was exchanged in the control group and the TFG-β2 supplemented group. DMEM+2% FBS+1% P/S was used as the medium. TGF-β2 alone (10 ng/mL), or both TGF-β2 (10 ng/mL) and each inhibitor (10 μm) were added. After 24 hours, proteins were collected by the following method.
The medium was collected on ice to collect free and dead cells. The solution from washing the cells twice with 1×PBS (−) was also collected, and was centrifuged at 4° C. at 800×g for 15 minutes. The supernatant was discarded to obtain precipitates. […]
Chemi Lumi ONE Ultra (nacalai tesque, 11644-40) was used for detection. The detected band strength was analyzed with Amersham™ Imager 600 (GE Healthcare).

[2] = tested on: rabbit cornea; experiment: Cornea preservation using rabbit cornea in Optisol-GS (Example 11); format: cell-based; details: 2 weeks of preservation at 4° C., 10 μM in Optisol-GS
Description: Rabbit eye balls after 0 to 24 hours from euthanasia were used in the experiment. Under a stereoscopic microscope, the sclera was excised using spring scissors along the corneal limbus, and the lens and iris were removed to prepare a sclerocornea fragment. The sclerocornea fragment was divided into two pieces as the control group and emricasan supplemented groups. After dividing the cornea, the control group was left standing in DMSO supplemented Optisol-GS® (Bausch & Lomb) and the caspase inhibitor supplemented groups were left standing in Optisol-GS® supplemented with emricasan for 2 weeks at 4° C.
After washing the sclerocornea fragment with PBS (−), the fragment was immobilized with 4% formaldehyde for 10 minutes at room temperature (RT) and incubated for 60 minutes with 1% bovine serum albumin (BSA). Antibodies to N-cadherin (BD Bioscience) and ZO-1 (Zymed Laboratories) were used at 1:300 dilution. For secondary antibodies, Alexa Fluor® 488 labeled goat anti-mouse IgG (Life Technologies, A11009) was used at a dilution of 1:1000. A 1:400 dilution of phalloidin (Life Technologies) 546 was used for actin staining. […] Fluorescence was observed using a confocal microscope (TCS SP2 AOBS; Leica Microsystems, Wetzlar Germany). Cells found to have actin contractile rings under a fluorescence microscope were counted to measure the ratio.

[3] = tested on: caspase 3; experiment: Western blot of caspase 3 after UV irradiation (Example 2); format: cell-based, monkey; details: UV 100 J/m^2, 9 hours
Description: 1×10^5 cultured monkey corneal endothelial cells were seeded on a 12-well plate coated with FNC Coating Mix and were cultured until reaching confluence under the condition of 5% CO2 at 37° C. Dulbecco's Modified Eagle Medium (DMEM) (Gibco, 12320-032)+10% FBS+1% Penicillin-Streptomycin (nacalai tesque, 26252-94) was used as the medium.
Each inhibitor was added at the above concentration. The cells were incubated for 18 hours under the condition of 5% CO2 at 37° C. The control group and the UV irradiation group were supplemented with a solvent of each reagent, i.e., DMSO (Dimethyl Sulfoxide, Sterile-filtered) (nacalai tesque, 13408-64). Gibco DMEM+1% P/S (penicillin-streptomycin mixture) was used as the medium.
The cell supernatant was then removed, and the cells were irradiated with UV (100 J/m^2). After irradiation, media containing each inhibitor were added to the cells again. The cells were cultured for 9 hours.
The cell morphology was observed under a phase difference microscope. After observation, western blot was performed on proteins by the following procedure.
The medium was collected on ice to collect free and dead cells. The solution from washing the cells twice with 1×PBS (−) was also collected. 800 g was centrifuged at 4° C. for 5 minutes. The supernatant was discarded to obtain precipitates. The washed cells were supplemented with a protein extraction buffer (RIPA; 50 mM Tris-HCl (pH 7.4), 150 mM NaCl, 1 mM EDTA, 0.1% SDS, 0.5% DOC, 1% NP-40) on ice to extract proteins. The precipitates from centrifuging the free and dead cells were also subsequently suspended together for extraction. The collected solution was pulverized three times for 30 seconds in cold water with a sonication device (BIORUPTOR, TOSHO DENKI) and centrifuged for 10 min at 4° C. at 15000 rpm to collect the supernatant of proteins.
8 μg of the extracted protein was separated by SDS-PAGE and transferred onto a nitrocellulose membrane. A rabbit anti-caspase 3 antibody (Cell Signaling, 9662), rabbit anti-PARP antibody (Cell Signaling, 9542), and mouse anti-GAPDH antibody (MBL, M171-3) were used as the primary antibodies. A peroxidase-labeled anti-rabbit antibody and anti-mouse antibody (GE Healthcare Biosciences, NA934V, NA931V) were used as the secondary antibodies. For the primary antibodies, rabbit anti-caspase 3 antibody and rabbit anti-PARP antibody: 1000-fold dilution and mouse anti-GAPDH antibody: 3000-fold dilution, while the secondary antibody was diluted 5000-fold. Chemi Lumi ONE Ultra (nacalai tesque, 11644-40) was used for detection. The detected band strength was analyzed with a lumino image analyzer LAS-4000 mini (Fuji Film) and ImageQuant™ software (GE Healthcare).

[4] = tested on: fibronectin; experiment: Fibronectin production due to TGF-β2 in iFECD, immunostaining and western blot (Example 17); format: cell-based, human; details: TGF-β2 10 ng/mL, inhibitor 10 μM, 24 hours
Description: Round glass was placed on a 24-well plate, disinfected for 5 minutes with ethanol, and coated with laminin-511 E8 Fragment. Then, iFECDs were seeded at 4.0×10^5 each and cultured at 37° C. (5% CO2) until reaching 60 to 70% confluence. Dulbecco's Modified Eagle Medium (DMEM, nacalai tesque, 08456-36)+10% FBS (Thermo Fisher Scientific, S1820-500)+1% penicillin-streptomycin (nacalai tesque, 26252-94) was used as the medium. SB431542 (Wako Pure Chemical Industries, Ltd./192-16541), Z-VD-FMK (isomer mixture) (Wako Pure Chemical Industries, Ltd./262-02061), and emricasan (CHEMSCENE, LLC/CS-0599) were then added at a concentration of 10 μM, and the cells were incubated for 24 hours. The medium was exchanged in the control group and the TFG-β2 supplemented group. DMEM+2% FBS+1% P/S was used as the medium. TGF-β2 alone (10 ng/mL), or both TGF-β2 (10 ng/mL) and each inhibitor (10 μM) were then added. After 24 hours, immunostaining was performed by the following method.
Cells after 24 hours form stimulation were washed with PBS (−) and immobilized with 4% PFA for 10 minutes at room temperature. 0.5% Triton was used for 5 minutes for permeation treatment, and 1% BSA was used for blocking for 1 hour. […] A confocal microscope (Leica Microsystems CMS GmcH Am Friendensplatz 3 68165 Mannheim, Germany) was used to observe fluorescence. […]

[5] = tested on: immobilized Fuchs' endothelial corneal dystrophy patient derived cells (iFECD); experiment: Cell damage in iFECD due to TGF-β2, phase difference microscope (Example 9); format: cell-based, human; details: TGF-β2 10 ng/mL, inhibitor 10 μM, 24 hours
Description: 1.2×10^5 iFECDs were seeded on a 12-well plate coated without coating and were cultured for 24 hours under the condition of 5% CO2 at 37° C. Dulbecco's Modified Eagle Medium (nacalai tesque, 26252-94)+10% FBS (Biological Industries/04-001-1A)+1% Penicillin-Streptomycin (nacalai tesque, 26252-94) was used as the medium.
After 24 hours from seeding, each inhibitor was added at a concentration of 10 μM and the cells were incubated for 24 hours under the condition of 5% CO2 at 37° C. The medium was exchanged for the control group and the TGF-β2 group. DMEM+2% FBS+1% P/S was used as the medium.
SB431542 (Wako Pure Chemical Industries, Ltd./192-16541); Z-VAD-FMK (Peptide Institute/3188-v); Z-VD-FMK (isomer mixture) (Wako Pure Chemical Industries, Ltd./262-02061); and emricasan (CHEMSCENE, LLC/CS-0599).
Next, TGF-β2 (manufacturer: R&D Systems, Inc., distributor: Wako Pure Chemical Industries, Ltd./manufacturer codes 302-B2-002, 302-B2-010, distributor codes: 553-62881, 5-59-62883) (10 ng/mL) alone, or both TGF-β2 (10 ng/mL) and each inhibitor (10 μM) were added. After 24 hours, cell morphology and programmed cell death were observed using a phase difference microscope.

Structure (SMILES) | phosphorylated Smad2 (p-Smad2) [1] | actin contractile rings [2] | cell damage [2] | inactive form cleaved caspase 3 of about 19 kDa ([3]; addition of 1 and 3 μM) | active form cleaved caspase 3 of about 17 kDa ([3]; all tested concentrations) | inactive form cleaved caspase 3 of about 19 kDa ([3]; other concentrations (10, 30, 100 μM)) | expression / overexpression of fibronectin [4] | programmed cell death [5] | effect of suppressing caspase 3 ([3]; concentration of 100 μM)
C[C@H](NC(=O)C(=O)Nc1ccccc1C(C)(C)C)C(=O)N[C@@H](CC(=O)O)C(=O)COc1c(F)c(F)cc(F)c1F [emricasan, 3-[2-[(2-tert-butyl-phenylaminooxalyl)-amino]-propionylamino]-4-oxo-5-(2,3,5,6-tetrafluoro-phenoxy)-pentanoic acid] | found | significantly suppressed | hardly any cell damage | hardly observed | not observed | not observed | suppressed | – | –
NC(=O)c1ccc(-c2nc(-c3ccc4c(c3)OCO4)c(-c3ccccn3)[nH]2)cc1 [SB431542] | not found | – | – | – | – | – | suppressed | suppressed | –
CC(C)[C@@]1(C(=O)N[C@H]2CC(=O)O[C@]2(O)CF)CC(c2nccc3ccccc23)=NO1 [nivocasan, (R)—N-((2S,3S)-2-(fluoromethyl)-2-hydroxy-5-oxotetrahydrofuran-3-yl)-5-isopropyl-1-3-(isoquinoline-1-yl)-4,5-dihydroisoxazole-5-carboxamide] | – | – | – | – | – | – | – | – | observed
